This is an account of results in article PMC11742280, “A phase I study of MLN4924 and belinostat in relapsed/refractory acute myeloid leukemia or myelodysplastic syndrome” (Cancer Chemotherapy and Pharmacology, 2025).

For series [1] the following is noted: in vivo.
Description: (§1) Belinostat was administered by a 30 min intravenous (IV) infusion on days 1 through 5 of each cycle; pevonedistat was administered by a 60 min IV infusion on days 1, 3 and 5 immediately after belinostat. The treatments were repeated on 21-day cycles until disease progression or unacceptable toxicity. […] The regimen was administered on an outpatient basis.
(§2) Blood samples for measurement of plasma concentrations were collected on day 1 of cycle 1 for both belinostat and pevonedistat. Belinostat, PK samples were collected pretreatment, 5 min prior to the end of the infusion, and at 0.25, 0.5, 1, 2, 4, 6, 8, and 24 h after the end of the infusion. Pevonedistat, PK samples were collected pretreatment and 0.5, 1, 2, 2.5, 5, and 24 h after the start of the infusion. Plasma was stored at − 80 °C until analysis. […] Concentrations of belinostat were determined over the range of 30–5000 ng/mL with dilutions of up to 1:100 v/v using a validated LC/MS/MS method at the Analytical Pharmacology Core Laboratory at the Sidney Kimmel Comprehensive Cancer Center at Johns Hopkins [33].
(§3) Pharmacokinetic parameters were calculated from individual concentration–time data using standard noncompartmental methods as implemented in Phoenix WinNonlin version 8.2 (Pharsight A Certara Company, Cary, North Carolina). Pharmacokinetic parameters were summarized using descriptive statistics. Differences between the pharmacokinetic parameters between dose levels or BSA-based dose were evaluated statistically via the nonparametric Kruskal–Wallis test. All statistical tests were performed using JMP Statistical Discovery software (version 7; SAS Institute, Cary, NC).
The test system of series [2] is relapsed/refractory AML and myelodysplastic syndrome. On the set-up: method as in PMID 24369094, PMID 21538061. The note with it: some patients; cited from earlier work.
Details of series [3]: method as in PMID 31097586, PMID 33441097. The conditions noted are these: e.g. value, compared with clinical Cmax; cited from earlier work.
Series [4] can be described thus: Plasma pharmacokinetics of belinostat and belinostat glucuronide (LC/MS/MS, noncompartmental analysis).
Description: as §1, §2, §3
The test system of a further series is high-risk MDS. Further details: method as in PMID 35728048. The note with it: comparator (azacitidine without pevonedistat); subset with high-risk MDS, post-hoc analysis; cited from earlier work.
Setting [5] is: cycle 1 day 1, dose level 1, belinostat 800 mg/m^2 IV (pevonedistat 20 mg/m^2), n=2, actual values.
[6] abbreviates: cycle 1 day 1, dose level 3, belinostat 800 mg/m^2 IV (pevonedistat 37 mg/m^2), n=2, actual values.

Like-named read-outs stand apart in the source and are kept apart here.

Consider `O=C(/C=C/c1cccc(S(=O)(=O)Nc2ccccc2)c1)NO[C@@H]1O[C@H](C(=O)O)[C@@H](O)[C@H](O)[C@H]1O` [Belinostat glucuronide], for which the “Pharmacokinetic parameters compared between dose levels” value in series [1] is listed as “not different by dose level”.
Turning to `O=C(/C=C/c1cccc(S(=O)(=O)Nc2ccccc2)c1)NO` [Belinostat], in series [2], the Single-agent clinical activity result is “stable disease over several months”. For the same molecule, in series [3], the “Concentrations shown to exert activity in preclinical studies” value is 100 to 200 nM. Moreover, the “Belinostat clearance by BSA-based dose” value in series [4] (1000 mg/m^2 compared with 800 mg/m^2, p = 0.05, Kruskal–Wallis) is listed as “significantly higher”. For the same molecule, the AUCINF in series [4] (setting [5]) came to 75.2 µM·h; in series [4] (setting [6]), 87.4 µM·h. The results for the “Cl (systemic clearance)” value in series [4] (setting [5]) and in series [4] (setting [6]) were 87.5 L/h and 82.4 L/h, respectively. Besides, the values for the T1/2 in series [4] (setting [5]) and in series [4] (setting [6]) were 40.2 min and 87.6 min, respectively. Moreover, the Tmax was 0.5 (0.4–0.5; 3) h in series [4] (cycle 1 day 1, dose level 2, belinostat 800 mg/m^2 IV (pevonedistat 25 mg/m^2), median (range; n)); 0.4 (0.4–0.5; 3) h in series [4] (cycle 1 day 1, dose level 3, belinostat 800 mg/m^2 IV (pevonedistat 37 mg/m^2), median (range; n)); 30 min in series [4] (human, plasma, iv). Moreover, the “Pharmacokinetic parameters compared between dose levels” value in series [4] (dose levels 1-5, Kruskal–Wallis) is reported as “not different by dose level”. The AUC(0-inf) in series [4] (human, plasma, iv, 800 mg/m2, AUCINF, cycle 1 day 1, belinostat 800 mg/m^2 IV, all 800 mg/m^2 patients (dose levels 1-3), mean±SD, n=7) was 67.5 ± 19.1 µM·h; in series [4] (human, plasma, iv, 1000 mg/m2, AUCINF, cycle 1 day 1, belinostat 1000 mg/m^2 IV, all 1000 mg/m^2 patients (dose levels 4-5), mean±SD, n=7), 51.6 ± 25.8 µM·h; in series [4] (human, plasma, iv, AUCINF, cycle 1 day 1, dose level 1, belinostat 800 mg/m^2 IV (pevonedistat 20 mg/m^2), n=2, actual values) it was 54.6 µM·h; in series [4] (human, plasma, iv, AUCINF, cycle 1 day 1, dose level 2, belinostat 800 mg/m^2 IV (pevonedistat 25 mg/m^2), mean±SD, n=3), 64.7 ± 27.4 µM·h; in series [4] (human, plasma, iv, AUCINF, cycle 1 day 1, dose level 3, belinostat 800 mg/m^2 IV (pevonedistat 37 mg/m^2), n=2, actual values) it was 61 µM·h; in series [4] (human, plasma, iv, AUCINF, cycle 1 day 1, dose level 4, belinostat 1000 mg/m^2 IV (pevonedistat 37 mg/m^2), mean±SD, n=3), 60.3 ± 39.2 µM·h. This molecule showed an AUC(0-inf) in series [4] (human, plasma, iv, AUCINF, cycle 1 day 1, dose level 5, belinostat 1000 mg/m^2 IV (pevonedistat 50 mg/m^2), mean±SD, n=4) of 45.1 ± 13.4 µM·h. The clearance in series [4] (human, plasma, iv, 800 mg/m2, Cl (systemic clearance), cycle 1 day 1, belinostat 800 mg/m^2 IV, all 800 mg/m^2 patients (dose levels 1-3), mean±SD, n=7) is 1290 mL/min; in series [4] (human, plasma, iv, 1000 mg/m2, Cl (systemic clearance), cycle 1 day 1, belinostat 1000 mg/m^2 IV, all 1000 mg/m^2 patients (dose levels 4-5), mean±SD, n=7), 2180 mL/min; in series [4] (human, plasma, iv, Cl (systemic clearance), cycle 1 day 1, dose level 1, belinostat 800 mg/m^2 IV (pevonedistat 20 mg/m^2), n=2, actual values) it was 1000 mL/min; in series [4] (human, plasma, iv, Cl (systemic clearance), cycle 1 day 1, dose level 2, belinostat 800 mg/m^2 IV (pevonedistat 25 mg/m^2), mean±SD, n=3) it was 1380 mL/min; in series [4] (human, plasma, iv, Cl (systemic clearance), cycle 1 day 1, dose level 3, belinostat 800 mg/m^2 IV (pevonedistat 37 mg/m^2), n=2, actual values) it was 1030 mL/min; in series [4] (human, plasma, iv, Cl (systemic clearance), cycle 1 day 1, dose level 4, belinostat 1000 mg/m^2 IV (pevonedistat 37 mg/m^2), mean±SD, n=3), 2020 mL/min. The molecule further showed a clearance in series [4] (human, plasma, iv, Cl (systemic clearance), cycle 1 day 1, dose level 5, belinostat 1000 mg/m^2 IV (pevonedistat 50 mg/m^2), mean±SD, n=4) of 2300 mL/min. Besides, the half-life – broadly, the time needed for the level to fall by half in the phase considered – was 67.8 ± 30 min in series [4] (human, plasma, iv, 800 mg/m2, T1/2, cycle 1 day 1, belinostat 800 mg/m^2 IV, all 800 mg/m^2 patients (dose levels 1-3), mean±SD, n=7); 53.4 ± 18 min in series [4] (human, plasma, iv, 1000 mg/m2, T1/2, cycle 1 day 1, belinostat 1000 mg/m^2 IV, all 1000 mg/m^2 patients (dose levels 4-5), mean±SD, n=7); 35.4 min in series [4] (human, plasma, iv, T1/2, cycle 1 day 1, dose level 1, belinostat 800 mg/m^2 IV (pevonedistat 20 mg/m^2), n=2, actual values); 81.6 ± 36.6 min in series [4] (human, plasma, iv, T1/2, cycle 1 day 1, dose level 2, belinostat 800 mg/m^2 IV (pevonedistat 25 mg/m^2), mean±SD, n=3); 67.2 min in series [4] (human, plasma, iv, T1/2, cycle 1 day 1, dose level 3, belinostat 800 mg/m^2 IV (pevonedistat 37 mg/m^2), n=2, actual values); 61.2 ± 26.4 min in series [4] (human, plasma, iv, T1/2, cycle 1 day 1, dose level 4, belinostat 1000 mg/m^2 IV (pevonedistat 37 mg/m^2), mean±SD, n=3). The half-life in series [4] (human, plasma, iv, T1/2, cycle 1 day 1, dose level 5, belinostat 1000 mg/m^2 IV (pevonedistat 50 mg/m^2), mean±SD, n=4) is 47.4 ± 7.2 min. Further, the Cmax in series [4] (human, plasma, iv, 1000 mg/m2, preEOI Cmax (peak plasma concentration), cycle 1 day 1, belinostat 1000 mg/m^2 IV, all 1000 mg/m^2 patients (dose levels 4-5), mean±SD, n=7) amounted to 104 ± 37.8 µM; in series [4] (human, plasma, iv, preEOI Cmax (peak plasma concentration), cycle 1 day 1, dose level 1, belinostat 800 mg/m^2 IV (pevonedistat 20 mg/m^2), n=2, actual values), 109 µM; in series [4] (human, plasma, iv, preEOI Cmax (peak plasma concentration), cycle 1 day 1, dose level 2, belinostat 800 mg/m^2 IV (pevonedistat 25 mg/m^2), mean±SD, n=3), 120 ± 50.3 µM; in series [4] (human, plasma, iv, preEOI Cmax (peak plasma concentration), cycle 1 day 1, dose level 4, belinostat 1000 mg/m^2 IV (pevonedistat 37 mg/m^2), mean±SD, n=4), 96.5 ± 46 µM; in series [4] (human, plasma, iv, preEOI Cmax (peak plasma concentration), cycle 1 day 1, dose level 5, belinostat 1000 mg/m^2 IV (pevonedistat 50 mg/m^2), mean±SD, n=3) it was 114 ± 29.4 µM; in series [4] (read-out: preEOI Cmax (peak plasma concentration), cycle 1 day 1, belinostat 800 mg/m^2 IV, all 800 mg/m^2 patients (dose levels 1-3), mean±SD, n=8), 123 ± 34.3 µM. Besides, the Cmax is 144 µM in series [4] (read-out: preEOI Cmax (peak plasma concentration), cycle 1 day 1, dose level 1, belinostat 800 mg/m^2 IV (pevonedistat 20 mg/m^2), n=2, actual values) and 125 ± 35 µM in series [4] (read-out: preEOI Cmax (peak plasma concentration), cycle 1 day 1, dose level 3, belinostat 800 mg/m^2 IV (pevonedistat 37 mg/m^2), mean±SD, n=3).
Turning to `Nc1ncn([C@@H]2O[C@H](CO)[C@@H](O)[C@H]2O)c(=O)n1` [azacitidine], the Survival with high-risk MDS is given as 20.6 mos.
